Measured values: ChEMBL document CHEMBL1201862, “PubChem BioAssay data set” (2004)
Active and inactive are the calls of the source.

Experiments:
[1] = target: T1, Alkaline phosphatase, tissue-nonspecific isozyme (Homo sapiens, UniProt P05186); assay: potency against alkaline phosphatase TNAP – biochemical, luminescent, dose response, SAR follow-up (AID 1056)
T1 sequence (P05186 whole entry): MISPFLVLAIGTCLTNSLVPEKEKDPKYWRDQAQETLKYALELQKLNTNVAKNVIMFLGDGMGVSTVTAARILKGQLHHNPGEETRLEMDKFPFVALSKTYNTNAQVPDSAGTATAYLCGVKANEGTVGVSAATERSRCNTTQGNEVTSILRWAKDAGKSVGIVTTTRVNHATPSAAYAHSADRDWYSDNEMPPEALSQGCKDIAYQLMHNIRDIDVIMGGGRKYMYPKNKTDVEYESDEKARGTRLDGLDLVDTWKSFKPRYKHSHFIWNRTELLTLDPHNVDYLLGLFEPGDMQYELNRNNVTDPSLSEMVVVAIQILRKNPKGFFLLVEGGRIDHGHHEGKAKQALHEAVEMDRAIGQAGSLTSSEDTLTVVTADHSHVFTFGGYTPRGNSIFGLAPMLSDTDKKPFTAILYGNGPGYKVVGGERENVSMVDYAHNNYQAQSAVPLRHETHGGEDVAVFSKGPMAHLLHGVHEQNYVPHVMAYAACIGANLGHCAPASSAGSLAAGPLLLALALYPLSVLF

[2] = target: Alkaline phosphatase, placental type (Homo sapiens, UniProt P05187); assay: human placental alkaline phosphatase inhibition – biochemical, luminescence, confirmation (AID 1512); type: functional
[3] = target: T2, Tyrosine-protein phosphatase non-receptor type 7 (Homo sapiens, UniProt P35236); type: functional
T2 sequence (P35236 whole entry): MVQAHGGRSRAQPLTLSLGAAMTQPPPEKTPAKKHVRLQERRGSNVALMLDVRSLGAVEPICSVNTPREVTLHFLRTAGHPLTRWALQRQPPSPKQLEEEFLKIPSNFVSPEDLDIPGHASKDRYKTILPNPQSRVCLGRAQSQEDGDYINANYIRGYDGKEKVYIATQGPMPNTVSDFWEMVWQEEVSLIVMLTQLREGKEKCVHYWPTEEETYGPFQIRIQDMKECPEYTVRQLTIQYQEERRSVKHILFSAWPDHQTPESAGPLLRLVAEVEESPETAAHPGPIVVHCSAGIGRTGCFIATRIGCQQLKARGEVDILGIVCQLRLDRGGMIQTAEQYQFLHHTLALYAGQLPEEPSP

[4] = target: T3, Tyrosine-protein phosphatase non-receptor type 22 (Homo sapiens, UniProt Q9Y2R2); type: functional
T3 sequence (Q9Y2R2 whole entry): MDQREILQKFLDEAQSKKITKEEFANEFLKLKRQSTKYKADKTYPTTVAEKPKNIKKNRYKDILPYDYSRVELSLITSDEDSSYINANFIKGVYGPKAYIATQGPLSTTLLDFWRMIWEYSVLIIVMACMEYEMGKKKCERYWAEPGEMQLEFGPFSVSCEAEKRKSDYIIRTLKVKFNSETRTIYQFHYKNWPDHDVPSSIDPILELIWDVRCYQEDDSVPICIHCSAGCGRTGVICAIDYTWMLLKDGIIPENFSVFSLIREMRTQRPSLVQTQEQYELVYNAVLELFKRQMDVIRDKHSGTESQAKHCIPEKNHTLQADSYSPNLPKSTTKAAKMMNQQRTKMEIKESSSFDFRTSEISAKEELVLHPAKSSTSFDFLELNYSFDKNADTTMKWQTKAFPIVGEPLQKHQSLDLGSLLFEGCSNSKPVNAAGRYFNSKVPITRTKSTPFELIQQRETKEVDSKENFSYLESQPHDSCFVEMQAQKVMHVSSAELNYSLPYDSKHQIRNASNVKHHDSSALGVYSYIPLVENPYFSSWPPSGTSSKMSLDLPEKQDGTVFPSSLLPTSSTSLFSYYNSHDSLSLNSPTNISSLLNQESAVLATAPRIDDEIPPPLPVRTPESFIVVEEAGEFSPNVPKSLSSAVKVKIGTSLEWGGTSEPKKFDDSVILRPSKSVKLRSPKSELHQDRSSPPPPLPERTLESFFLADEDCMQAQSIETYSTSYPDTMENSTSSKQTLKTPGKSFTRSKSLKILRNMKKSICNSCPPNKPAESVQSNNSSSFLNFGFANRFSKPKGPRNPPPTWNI

[5] = target: T3, Tyrosine-protein phosphatase non-receptor type 22; type: functional; remark: listed apart in the source
[6] = target: Glyceraldehyde-3-phosphate dehydrogenase (Homo sapiens, UniProt P04406)
SUMO-activating enzyme = SUMO-activating enzyme (Homo sapiens, UniProt Q9UBT2); assay: blockers of UBC9-mediated SUMO conjugation – biochemical, AlphaScreen, SUMOylation inhibitor project, confirmation (AID 2018); type: functional
[7] = Luminescence Cell-Based Dose Response HTS to Identify Activators of Luciferase Translation or Activity in H4 […] Cells. [Related pubchem assays: 1829 (Project Summary), 1814 (Primary HTS)]; type: functional
[8] = fluconazole-exposed Candida albicans growth modulators – fluorescence, retest, confirmation (AID 2467); type: functional, cell-based
H4 = assay: Luminescence Cell-Based Dose Response HTS to Identify Activators of 5'UTR Stem-Loop Driven Prion Protein mRNA Translation in H4 Neuroglioblastoma Cells. [Related pubchem assays: 1829 (Project Summary), 1814 (Primary HTS)]; type: functional; settings: Homo sapiens
[9] = target: T4, Dual specificity protein phosphatase 6 (Rattus norvegicus, UniProt Q64346); assay: inhibition of rat DUSP6 enzyme activity – biochemical, in vitro, primary screen (AID 425)
T4 sequence (Q64346 whole entry): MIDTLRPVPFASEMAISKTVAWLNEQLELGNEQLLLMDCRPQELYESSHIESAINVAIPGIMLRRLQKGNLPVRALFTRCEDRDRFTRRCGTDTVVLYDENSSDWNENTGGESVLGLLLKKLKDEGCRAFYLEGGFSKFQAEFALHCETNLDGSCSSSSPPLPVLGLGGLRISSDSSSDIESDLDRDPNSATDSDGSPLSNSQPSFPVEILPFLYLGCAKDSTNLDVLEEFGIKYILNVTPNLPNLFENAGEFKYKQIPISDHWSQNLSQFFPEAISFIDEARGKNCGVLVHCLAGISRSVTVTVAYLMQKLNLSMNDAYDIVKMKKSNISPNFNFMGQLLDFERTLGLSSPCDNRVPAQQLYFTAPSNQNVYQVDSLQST

[10] = target: Mitogen-activated protein kinase 10 (Homo sapiens, UniProt P53779); assay: Dose response biochemical screening assay for inhibitors of c-Jun N-Terminal Kinase 3 (JNK3). [Related pubchem assays: 746 ]
[11] = NIH-3T3 fibroblast cytotoxicity, dose response, cytotoxicity control, cell-based, fluorescence, Alamar Blue, secondary assay (AID 2327); type: functional;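 note: NIH-3T3 mouse fibroblasts cultured with fluconazole at 8 µg/mL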
Streptococcus = assay: GAS UMAA2166 growth inhibition – luminescence, BacTiterGlo, counter-screen for streptokinase expression inhibitor project, dose response (AID 1915); type: functional, organism-based;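 note: potency for reduction of bacterial viability or growth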
[12] = target: T5, Calpain-2 catalytic subunit (Sus scrofa, UniProt P43367); assay: m-calpain protease blockers, concentration series – biochemical, fluorogenic peptide substrate, dose response (AID 1420); type: functional
T5 sequence (P43367 whole entry): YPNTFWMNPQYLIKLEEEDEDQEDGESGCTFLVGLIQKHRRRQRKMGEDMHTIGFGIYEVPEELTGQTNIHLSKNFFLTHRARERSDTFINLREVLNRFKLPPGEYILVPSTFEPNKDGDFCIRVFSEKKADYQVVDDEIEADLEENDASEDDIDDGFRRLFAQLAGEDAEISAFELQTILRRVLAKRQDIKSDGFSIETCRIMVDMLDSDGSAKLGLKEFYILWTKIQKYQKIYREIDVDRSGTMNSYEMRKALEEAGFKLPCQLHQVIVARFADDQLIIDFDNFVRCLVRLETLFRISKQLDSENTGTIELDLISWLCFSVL

[13] = Luminescence Cell-Based Dose Confirmation HTS to Identify Activators of 5'UTR Stem-Loop Driven Alpha-Synuclein mRNA Translation in H4 Neuroglioblastoma Cells. [Related pubchem assays: 1829 (Project Summary), 1814 (Primary HTS)]; type: functional
Streptokinase A = target: T6, Streptokinase A (Streptococcus pyogenes serotype M1, UniProt P10520); assay: viability-normalized secreted streptokinase activity reduction – plasminogen activation absorbance, OD405, dose response (AID 1914); type: functional, Streptococcus pyogenes M1 GAS;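 note: secreted streptokinase activity via plasminogen activation per viability signal from cell pellet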
T6 sequence (P10520 whole entry): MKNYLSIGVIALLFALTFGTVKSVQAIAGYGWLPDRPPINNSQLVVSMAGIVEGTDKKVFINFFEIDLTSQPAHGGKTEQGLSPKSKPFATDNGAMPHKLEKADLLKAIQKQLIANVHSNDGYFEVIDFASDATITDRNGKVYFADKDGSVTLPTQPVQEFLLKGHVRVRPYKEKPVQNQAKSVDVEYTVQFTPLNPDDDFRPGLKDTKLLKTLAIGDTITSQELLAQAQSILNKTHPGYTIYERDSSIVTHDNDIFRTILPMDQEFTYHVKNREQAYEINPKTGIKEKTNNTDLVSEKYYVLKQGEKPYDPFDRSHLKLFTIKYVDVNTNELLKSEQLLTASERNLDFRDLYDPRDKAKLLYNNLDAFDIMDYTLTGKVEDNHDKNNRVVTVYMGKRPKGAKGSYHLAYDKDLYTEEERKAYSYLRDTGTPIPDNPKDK

[14] = tested on: Streptococcus sp. 'group A'; assay: Streptococcus pyogenes SK(-)GAS viability under kanamycin – luminescence, BacTiterGlo, confirmation, counter-screen for streptokinase expression inhibitor project, dose response (AID 1900); type: functional, organism-based
Cannabinoid receptor 2 [15] = target: T7, Cannabinoid receptor 2 (Homo sapiens, UniProt P34972); assay: SAR analysis of antagonists of the Cannabinoid Receptor 2 using an Image-Based Assay - Set 2. [Related pubchem assays (depositor defined):AID1961, AID1965]; type: functional
[16] = target: T8, G-protein coupled receptor 35 (Homo sapiens, UniProt Q9HC97); assay: SAR analysis of Agonists of the GPR35 Receptor using an Image-Based Assay - Set 3. [Related pubchem assays (depositor defined):AID1961, AID1965]; type: functional
Cannabinoid receptor 1 [17] = target: T9, Cannabinoid receptor 1 (Homo sapiens, UniProt P21554); assay: SAR analysis of antagonists of the Cannabinoid Receptor 1 using an Image-Based Assay - Set 3. [Related pubchem assays (depositor defined):AID1961, AID1965]; type: functional
[18] = target: G-protein coupled receptor 55 (Homo sapiens, UniProt Q9Y2T6); assay: SAR analysis of selective Agonists of GPR55 using an Image-Based Assay - Set 2. [Related pubchem assays (depositor defined):AID1961, AID1965]; type: functional
[19] = target: T8, G-protein coupled receptor 35; assay: SAR analysis of Antagonists of the GPR35 Receptor using an Image-Based Assay - Set 4. [Related pubchem assays (depositor defined):[…]]; type: functional
Cannabinoid receptor 1 [20] = target: T9, Cannabinoid receptor 1; assay: SAR analysis of agonists of the Cannabinoid Receptor 1 using an Image-Based Assay - Set 3. [Related pubchem assays (depositor defined):AID1961, AID1965]; type: functional
Cannabinoid receptor 2 [21] = target: T7, Cannabinoid receptor 2; assay: SAR analysis of agonists of the Cannabinoid Receptor 2 using an Image-Based Assay - Set 2. [Related pubchem assays (depositor defined):AID1961, AID1965]; type: functional

T8 sequence (Q9HC97 whole entry): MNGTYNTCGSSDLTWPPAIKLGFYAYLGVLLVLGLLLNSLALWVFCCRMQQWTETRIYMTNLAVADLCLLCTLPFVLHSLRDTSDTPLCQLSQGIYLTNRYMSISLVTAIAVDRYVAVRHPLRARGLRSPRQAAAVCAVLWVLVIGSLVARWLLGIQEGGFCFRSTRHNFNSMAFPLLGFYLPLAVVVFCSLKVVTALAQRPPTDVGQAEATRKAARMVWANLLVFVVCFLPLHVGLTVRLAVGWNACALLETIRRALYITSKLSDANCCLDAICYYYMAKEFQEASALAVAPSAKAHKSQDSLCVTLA
T9 sequence (P21554 whole entry): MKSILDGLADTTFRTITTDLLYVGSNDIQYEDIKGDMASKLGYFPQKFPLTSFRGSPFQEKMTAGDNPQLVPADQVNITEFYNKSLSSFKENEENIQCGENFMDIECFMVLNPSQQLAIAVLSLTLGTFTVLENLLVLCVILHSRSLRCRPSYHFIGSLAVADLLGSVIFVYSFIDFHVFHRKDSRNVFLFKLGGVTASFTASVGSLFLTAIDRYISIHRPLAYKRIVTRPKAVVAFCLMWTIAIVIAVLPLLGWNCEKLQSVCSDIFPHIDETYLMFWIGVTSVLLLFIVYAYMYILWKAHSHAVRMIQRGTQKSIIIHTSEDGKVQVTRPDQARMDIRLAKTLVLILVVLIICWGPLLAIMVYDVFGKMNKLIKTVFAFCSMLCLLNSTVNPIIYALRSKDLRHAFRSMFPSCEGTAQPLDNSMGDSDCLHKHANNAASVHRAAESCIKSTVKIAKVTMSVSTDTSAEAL
T7 sequence (P34972 whole entry): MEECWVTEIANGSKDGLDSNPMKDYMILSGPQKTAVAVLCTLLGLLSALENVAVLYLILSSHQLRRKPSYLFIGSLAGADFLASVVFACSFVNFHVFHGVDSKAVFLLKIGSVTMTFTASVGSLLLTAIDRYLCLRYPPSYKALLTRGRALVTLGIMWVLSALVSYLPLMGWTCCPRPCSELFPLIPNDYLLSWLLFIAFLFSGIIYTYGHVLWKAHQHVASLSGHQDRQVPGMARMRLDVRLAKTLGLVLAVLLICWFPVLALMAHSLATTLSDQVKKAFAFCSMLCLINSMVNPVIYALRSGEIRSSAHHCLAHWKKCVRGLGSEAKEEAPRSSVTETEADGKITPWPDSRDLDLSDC
Alkaline phosphatase, placental type, sequence (P05187 whole entry): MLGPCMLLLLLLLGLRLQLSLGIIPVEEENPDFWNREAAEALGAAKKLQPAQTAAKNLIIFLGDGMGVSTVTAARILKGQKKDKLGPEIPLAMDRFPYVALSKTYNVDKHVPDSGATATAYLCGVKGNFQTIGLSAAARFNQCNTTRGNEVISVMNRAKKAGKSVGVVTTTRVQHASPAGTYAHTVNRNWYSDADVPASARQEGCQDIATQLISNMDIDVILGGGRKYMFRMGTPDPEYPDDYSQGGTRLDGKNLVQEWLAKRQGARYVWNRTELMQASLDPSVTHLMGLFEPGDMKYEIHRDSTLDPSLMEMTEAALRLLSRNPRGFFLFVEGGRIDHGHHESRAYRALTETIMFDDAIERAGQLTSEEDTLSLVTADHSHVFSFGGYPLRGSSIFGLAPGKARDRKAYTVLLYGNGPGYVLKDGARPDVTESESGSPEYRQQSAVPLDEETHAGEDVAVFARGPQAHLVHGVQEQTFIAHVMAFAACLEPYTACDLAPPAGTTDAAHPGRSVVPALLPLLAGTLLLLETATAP
G-protein coupled receptor 55, sequence (Q9Y2T6 whole entry): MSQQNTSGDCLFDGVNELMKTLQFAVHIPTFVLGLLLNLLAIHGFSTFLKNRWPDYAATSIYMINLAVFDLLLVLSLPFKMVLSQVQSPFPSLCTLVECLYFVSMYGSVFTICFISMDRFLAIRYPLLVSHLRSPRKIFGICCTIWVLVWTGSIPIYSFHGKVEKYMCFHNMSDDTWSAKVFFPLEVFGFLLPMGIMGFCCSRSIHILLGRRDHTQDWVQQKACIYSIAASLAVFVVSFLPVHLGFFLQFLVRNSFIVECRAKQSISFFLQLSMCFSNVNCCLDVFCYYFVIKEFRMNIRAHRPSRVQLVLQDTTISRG
Glyceraldehyde-3-phosphate dehydrogenase, sequence (P04406 whole entry): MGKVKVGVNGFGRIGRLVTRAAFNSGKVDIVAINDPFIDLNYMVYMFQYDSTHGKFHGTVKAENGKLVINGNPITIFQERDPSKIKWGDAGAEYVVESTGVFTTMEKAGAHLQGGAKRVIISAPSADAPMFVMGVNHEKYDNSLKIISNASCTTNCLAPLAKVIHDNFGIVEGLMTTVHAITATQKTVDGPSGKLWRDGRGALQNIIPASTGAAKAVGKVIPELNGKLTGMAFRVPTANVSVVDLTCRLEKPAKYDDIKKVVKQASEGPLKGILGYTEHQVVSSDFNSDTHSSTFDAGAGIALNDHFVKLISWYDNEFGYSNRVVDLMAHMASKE
SUMO-activating enzyme, sequence (Q9UBE0 whole entry): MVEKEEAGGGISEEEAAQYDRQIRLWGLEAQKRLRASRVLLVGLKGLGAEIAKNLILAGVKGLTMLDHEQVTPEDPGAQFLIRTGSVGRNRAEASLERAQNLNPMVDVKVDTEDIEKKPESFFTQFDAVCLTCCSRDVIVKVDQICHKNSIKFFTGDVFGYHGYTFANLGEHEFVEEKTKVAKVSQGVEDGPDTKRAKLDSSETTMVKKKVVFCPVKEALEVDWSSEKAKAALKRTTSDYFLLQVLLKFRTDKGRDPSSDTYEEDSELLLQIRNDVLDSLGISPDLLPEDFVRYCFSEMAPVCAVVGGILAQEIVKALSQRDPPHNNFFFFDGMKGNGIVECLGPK
SUMO-activating enzyme, sequence (Q9UBT2 whole entry): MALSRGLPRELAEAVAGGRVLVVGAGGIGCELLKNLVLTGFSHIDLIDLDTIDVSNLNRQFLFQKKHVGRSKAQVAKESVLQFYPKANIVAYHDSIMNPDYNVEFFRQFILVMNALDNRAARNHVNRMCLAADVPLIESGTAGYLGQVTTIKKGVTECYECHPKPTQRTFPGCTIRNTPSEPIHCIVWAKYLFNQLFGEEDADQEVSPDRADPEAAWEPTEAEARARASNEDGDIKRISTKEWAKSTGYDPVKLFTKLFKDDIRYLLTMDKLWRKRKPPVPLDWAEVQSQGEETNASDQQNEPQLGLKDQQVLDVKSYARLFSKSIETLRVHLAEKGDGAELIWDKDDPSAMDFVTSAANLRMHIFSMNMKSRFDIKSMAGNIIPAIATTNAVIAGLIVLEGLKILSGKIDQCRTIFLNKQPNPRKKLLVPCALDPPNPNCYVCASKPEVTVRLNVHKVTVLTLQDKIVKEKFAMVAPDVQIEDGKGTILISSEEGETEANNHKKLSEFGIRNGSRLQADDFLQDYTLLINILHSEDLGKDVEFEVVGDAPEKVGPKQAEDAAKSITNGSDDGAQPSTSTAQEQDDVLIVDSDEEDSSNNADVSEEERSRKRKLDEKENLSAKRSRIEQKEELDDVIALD
Mitogen-activated protein kinase 10, sequence (P53779 whole entry): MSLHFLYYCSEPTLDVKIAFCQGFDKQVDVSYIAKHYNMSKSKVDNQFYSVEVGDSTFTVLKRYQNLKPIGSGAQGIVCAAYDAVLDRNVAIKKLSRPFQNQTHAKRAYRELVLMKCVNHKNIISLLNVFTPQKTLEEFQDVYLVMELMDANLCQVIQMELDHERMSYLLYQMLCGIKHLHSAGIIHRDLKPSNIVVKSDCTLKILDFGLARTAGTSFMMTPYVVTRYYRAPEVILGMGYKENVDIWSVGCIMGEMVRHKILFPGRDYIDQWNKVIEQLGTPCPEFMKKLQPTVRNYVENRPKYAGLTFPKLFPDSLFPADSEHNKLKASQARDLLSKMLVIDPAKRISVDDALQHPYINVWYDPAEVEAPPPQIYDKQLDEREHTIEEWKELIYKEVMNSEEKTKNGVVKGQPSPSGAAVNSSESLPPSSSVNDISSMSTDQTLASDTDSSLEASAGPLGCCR

C=CCN1C(=O)NC2(O)C(=O)c3ccccc3C12O (configuration not stated)
IC50 [1]: 56.3 µM (active)
IC50 [2]: 12.7 µM (active)

CC(C)Cc1nc(S(=O)(=O)c2ccc(Cl)cc2)c(N2CCOCC2)o1
IC50 [3]: > 79.4 µM (inactive)
IC50 [4]: > 79.4 µM (inactive)
IC50 [5]: > 79.4 µM (inactive)

CCCc1nn(C(C)=O)c2c1C(=O)CC(C)(C)C2
IC50 [1]: 19.1 µM (active)
IC50 [6]: > 100 µM (not active)
IC50 [2]: > 100 µM (inactive)

NC(=O)CC(NC(=O)Cc1ccc(Br)cc1)c1ccc(NCCc2ccccc2F)c([N+](=O)[O-])c1 (configuration not stated)
IC50 (SUMO-activating enzyme): 78.2 µM (active)

CCn1nc(-c2ccccc2)nc2c(=O)n(C)c(=O)nc1-2
EC50 [7]: > 30 µM (not active)
EC50 [8]: 0.442 µM (active)
EC50 (H4): > 120 µM (not active)
IC50 [9]: 0.239 µM (active)
IC50 [3]: 8.91 µM (active)
IC50 [10]: 36.3 µM (not active)
EC50 [11]: 1.8 µM (inconclusive)
IC50 [4]: 10.4 µM (active)
EC50 (Streptococcus): 9.43 µM (active)
IC50 [5]: 13.2 µM (active)
IC50 [12]: 6.11 µM (not active)
EC50 [13]: > 120 µM (not active)
EC50 (Streptokinase A): > 150 µM (not active)
EC50 [14]: 2.54 µM (active)

COc1ccc(S(=O)(=O)N2CCOCC2)cc1NC(=O)c1sc2cccc(F)c2c1C
IC50 (Cannabinoid receptor 2 [15]): > 32 µM (inactive)
EC50 [16]: > 32 µM (inactive)
IC50 (Cannabinoid receptor 1 [17]): > 32 µM (inactive)
EC50 [18]: > 32 µM (inactive)
IC50 [19]: > 32 µM (inactive)
EC50 (Cannabinoid receptor 1 [20]): > 32 µM (inactive)
EC50 (Cannabinoid receptor 2 [21]): > 32 µM (inactive)

CN(C)S(=O)(=O)c1ccc(N2CCCC2)c(C(=O)N2CCN(c3ccccc3)CC2)c1
IC50 (Cannabinoid receptor 2 [15]): > 32 µM (inactive)
EC50 [16]: > 32 µM (inactive)
IC50 (Cannabinoid receptor 1 [17]): > 32 µM (inactive)
EC50 [18]: 1.67 µM (active)
IC50 [19]: > 32 µM (inactive)
EC50 (Cannabinoid receptor 1 [20]): > 32 µM (inactive)
EC50 (Cannabinoid receptor 2 [21]): > 32 µM (inactive)
